Results on seven compounds are retold here after patent publication US7157079B2, “Combined tumor suppressor gene therapy and chemotherapy in the treatment of neoplasms” (priority 1997, dated 2007).

In series [1] the test system is MRC-9 diploid fibroblast cells. The series is described as follows: 3H-thymidine incorporation growth assay in normal cells. Particulars: MRC-9 vs tumor cells; FIG. 9. The series is classed as cell-based. On the procedure: In a second experiment, the efficacy of treatment of normal cells (MRC-9 cells) was compared with tumor cells (FIG. 9). In this experiment, growth was assayed as ^3H-thymidine incorporation rather than the MTT assay. […] As would be expected, the effect of tumor suppressor alone was negligible in normal cells and highly significant in tumor cells.

The test system of series [2] is SK-OV-3 ovarian tumor cells. Briefly: MTT cell death assay, p53 adenovirus combined with anti-cancer drug. The series is classed as cell-based, human. Particulars: FIG. 1, TAXOL 0.001-20 μg/ml, p53 Ad 0.5-50 m.o.i., MTT on day 3. On the procedure:
In treatment three, the cells were contacted simultaneously with both the TAXOL® and the p53 adenovirus. Thus, the p53 Ad and TAXOL® can be administered within the same twenty four (24) hour period or concurrently.
Approximately 1.5×10^4 cells in culture medium (head and neck cell lines SCC-9, SCC-15, and SCC-25 in 1:1 mix of DMEM+ Ham's F12 media with 0;4 μg/ml cortisol and 10% FBS and 1% non-essential amino acids, prostate DU-145 and Ovarian SK-OV-3 in Eagles essential medium plus 10% FBS) were added to each well on a 96 well microtitre plate and cultured for about 4 hours at 37° C. and 5% CO2.
Cell death was then quantitated according to the method of Mosmann (1983) J. Immunol. Meth., 65: 55–63.
Dosing was performed as described above. Cell death was quantitated on day 3 using the MTT assay as described above. In addition, a dose response curve for p53 Ad alone (using the doses listed in Table 2) was generated (after […] cell exposure to the drug) and a dose response curve for TAXOL® alone was performed using the doses listed above (3 day cell exposure to the drug).
All cell lines were obtained from ATCC (Rockville, Md.). […]
In general terms: Tetrazolium assays rely on reduction of a dye to a coloured formazan, in cell work by metabolically active cells.

The test system of series [3] is intraperitoneal SK-OV-3 tumors. The series is described as follows: SK-OV-3 ovarian tumor model, cisplatin efficacy. The series is classed as in vivo, scid mice. Particulars: day 20. The method, then: There were normally ten mice per group.
Established intraperitoneal SK-OV-3 tumors were treated with intraperitoneal doses of vehicles, p53 Ad, cisplatin, or both drugs. Mice were given six injections of p53 Ad over a period of two weeks. The total virus dose was 1.5×10^9 C.I.U. (3.1×10^10 viral particles).
Cisplatin efficacy: Female scid mice were injected with 5×10^6 SK-OV-3 ovarian tumor cells, I.P., on day 0. Mice were dosed I.P. on days 6, 8, 10, 13, 15, and 17 (p53 Ad only on D17). Mice received 0.2 ml total volume (0.1 ml cisplatin vehicle or cisplatin plus 0.1 ml Ad buffer or p53 Ad). The p53 Ad dose was 2.5×10^8 C.I.U./mouse/day (5.2×10^9 viral particles). The cisplatin dose was 2 mg/kg/day. Tumors were harvested and weighed on day 20.

The subject of the next series is MDA-MB-231 tumors. Briefly: Tumor growth with adenovirus in the absence or presence of low dose dexamethasone. Particulars: s.c. pellet releasing 83.3 μg dexamethasone/day. The method, then: To investigate whether the immunosuppressant properties of low dose Dexamethasone (Dex) can inhibit the anti-adenovirus immune response (e.g., NK cell response) MDA-MB-231 tumors in scid mice were treated with recombinant virus of the invention in the absence and in the presence of dexamethasone.
Approximately 5×10^6 MDA-MB-231 cells/mouse were injected into the mammary fat pads of female scid mice on day 0. On day 11, dexamethasone or placebo pellets were implanted subcutaneously. The 5 mg pellets were designed to release 83.3 μg dexamethasone/day continuously for 60 days (Innovative Research of America, Sarasota, Fla.). All mice received a total of 10 peritumoral injections given once a day on days 14–18 and 21–25 (0.1 ml per injection).

Consider `O=c1[nH]cc(F)c(=O)[nH]1` [5-FU, 5-fluorouracil], for which the “effect of anti-cancer chemotherapeutic alone, normal vs cancer cells” value (from here on “effect … vs cancer cells”) in series [1] is “more effective in normal cells than cancer cells”.
Consider `CC(=O)O[C@H]1C(=O)[C@@]2(C)[C@H]([C@H](OC(=O)c3ccccc3)[C@]3(O)C[C@H](OC(=O)[C@H](O)[C@@H](NC(=O)c4ccccc4)c4ccccc4)C(C)=C1C3(C)C)[C@]1(OC(C)=O)CO[C@@H]1C[C@@H]2O` [TAXOL ®, paclitaxel], for which, in series [2], the “inhibition of cell proliferation (as compared to the buffer control)” value was “decreased the rate of cell proliferation”.
As for `N.N.[Cl][Pt][Cl]` [cisplatin], the “effect … vs cancer cells” value in series [1] is on record as “more effective in normal cells than cancer cells”. Moreover, the “bloody ascites and invasive tumor nodules in the diaphragm muscle” value in series [3] was “absent”.
For the compound `C[C@@H]1C[C@H]2[C@@H]3CCC4=CC(=O)C=C[C@]4(C)[C@@]3(F)[C@@H](O)C[C@]2(C)[C@@]1(O)C(=O)CO` [dexamethasone], in the series on MDA-MB-231 tumors, the adverse side effects entry is on record as “No adverse side effects” and the “effect on the growth rate of tumors” value was “no significant effect”.
On to `COc1cccc2c1C(=O)c1c(O)c3c(c(O)c1C2=O)C[C@@](O)(C(=O)CO)C[C@@H]3O[C@H]1C[C@H](N)[C@H](O)[C@H](C)O1` [doxorubicin], for which, in series [1], the “effect … vs cancer cells” value is “more effective in normal cells than cancer cells”.
Still for that read-out and setting: the result for `COc1cc([C@@H]2c3cc4c(cc3[C@@H](O[C@@H]3O[C@@H]5CO[C@@H](C)O[C@H]5[C@H](O)[C@H]3O)[C@H]3COC(=O)[C@H]23)OCO4)cc(OC)c1O` [etoposide] reads “more effective in normal cells than cancer cells”.
Still for that read-out and setting: the result for `CN(Cc1cnc2nc(N)nc(N)c2n1)c1ccc(C(=O)N[C@@H](CCC(=O)O)C(=O)O)cc1` [methotrexate] reads “more effective in normal cells than cancer cells”.
